Results as given in patent US20250144127A1, “LONG-CHAIN COMPOUND AND USE THEREOF” (Burgeon Therapeutics Co., Ltd., priority 2021, published 2025).

Experiments:
[1] = biological target: T1, Human-derived ACLY protein (Homo sapiens, UniProt P53396); assay: ACLY citrate cleavage enzyme inhibition, ADP-Glo assay; assay type: biochemical; conditions: 25 nM enzyme, 30 min, 37° C., read-out: IC50 for inhibition of ACLY enzyme activity (mean ± SD)
T1 construct: purchased Beijing Yiqiao Shenzhou Technology Co., Ltd 11769-H07B
T1 sequence (P53396 1-1101): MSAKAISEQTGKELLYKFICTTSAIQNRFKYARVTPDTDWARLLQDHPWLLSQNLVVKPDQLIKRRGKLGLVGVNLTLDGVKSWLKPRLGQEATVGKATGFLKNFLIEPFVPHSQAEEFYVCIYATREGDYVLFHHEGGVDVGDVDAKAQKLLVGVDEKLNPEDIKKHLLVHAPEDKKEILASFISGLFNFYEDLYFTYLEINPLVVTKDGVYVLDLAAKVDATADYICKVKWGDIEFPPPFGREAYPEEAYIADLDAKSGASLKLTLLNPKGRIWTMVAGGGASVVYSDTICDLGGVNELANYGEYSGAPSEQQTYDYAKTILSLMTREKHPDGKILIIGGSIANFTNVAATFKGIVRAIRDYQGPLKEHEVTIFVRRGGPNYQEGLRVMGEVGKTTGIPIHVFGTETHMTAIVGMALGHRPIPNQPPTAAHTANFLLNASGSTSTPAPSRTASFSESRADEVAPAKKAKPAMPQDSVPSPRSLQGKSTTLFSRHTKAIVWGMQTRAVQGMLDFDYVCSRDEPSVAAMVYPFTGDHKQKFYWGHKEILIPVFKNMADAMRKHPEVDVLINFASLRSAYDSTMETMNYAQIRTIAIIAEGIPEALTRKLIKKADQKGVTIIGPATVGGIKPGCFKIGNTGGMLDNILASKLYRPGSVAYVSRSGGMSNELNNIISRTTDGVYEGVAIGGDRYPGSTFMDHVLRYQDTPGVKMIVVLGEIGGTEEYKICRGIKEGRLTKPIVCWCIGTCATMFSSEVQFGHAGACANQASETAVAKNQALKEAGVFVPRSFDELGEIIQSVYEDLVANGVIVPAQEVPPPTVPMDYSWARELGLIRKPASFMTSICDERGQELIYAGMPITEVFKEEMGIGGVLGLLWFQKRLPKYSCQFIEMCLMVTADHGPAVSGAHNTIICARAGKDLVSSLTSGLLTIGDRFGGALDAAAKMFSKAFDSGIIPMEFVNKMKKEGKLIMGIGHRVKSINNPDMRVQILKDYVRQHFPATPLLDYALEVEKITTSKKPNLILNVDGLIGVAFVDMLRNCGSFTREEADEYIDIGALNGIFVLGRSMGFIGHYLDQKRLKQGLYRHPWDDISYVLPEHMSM
Source text: The ACLY-catalyzed citric acid cleavage process requires the consumption of one molecule of ATP to activate citric acid. Based on this reaction principle, the inventors utilized an ADP-Glo assay kit to detect the amount of ATP converted to ADP in response to the catalytic activity of ACLY. After the establishment of the activity measurement system and optimization of the reaction conditions, the inventors evaluated the ACLY inhibitory activity of the obtained novel ACLY small molecule inhibitors.
Activity test protocol: Human-derived ACLY protein was purchased from Beijing Yiqiao Shenzhou Technology Co., Ltd (Item No. 11769-H07B), and ADP-Glo assay kit was purchased from Promega (Item No. V9102). The total volume of the reaction was 5 μL, which consisted of a mixture of three parts: 1 μL of 2% DMSO, 2 μL of the substrate mixture, and 2 μL of the enzyme (final concentration of 25 nM). Then 1 μL of different concentrations of compounds were added for incubation. Reaction conditions: 30 min, 37° C. Then 2.5 μL of ADP Reagent from ADP-Glo Kit was used, mixed well and reacted for 2 h. 5 μL of ADP Detection was added, centrifuged and mixed well. Then the full wavelength value was read from Envision multifunctional plate reader.
Results: Firstly, the cumulative amount of fluorescence intensity of the enzyme in 30 min reaction time (RFU/min) was calculated to represent the initial velocity of the enzyme, and then the ratio of the enzyme's velocity with the addition of compounds (vsample) to the enzyme's velocity without the addition of compounds (vDMSO) was calculated to be the percentage of activity for each concentration group of the samples (Activity rate %), with the formula: % Activity=(V(sample)/(v(DMSO))×100%. The logarithmic value of the concentration was plotted against the activity percentage, and then a non-linear regression was used to calculate the fitted curve. The software GraphPad Prism 8.0 (formula log (inhibitor) vs. response—Variable slope) was used to fit the curve and calculate the IC50 value, and the results are shown in the table below.

ApoE−/− mice = assay: Atherosclerosis in ApoE-/- mice on high cholesterol chow, aortic plaque Sudan IV staining; assay type: in vivo, mouse
Experimental: Dosing regimen: Hypercholesterolemia is an important trigger for the development of atherosclerosis. […] The specific scheme is as follows. 60 ApoE^−/− mice, males, were equally divided into 6 groups (n=10), of which 5 groups were fed with high cholesterol chow (Research diet, item no. D12079B) for modeling, and 1 group was set aside as a blank control group, while long-term administration of the drug was carried out, i.e., the model control group, the positive control ETC-1002 30 mg/kg group, and the compounds A3 15 mg/kg and 30 mg/kg and 60 mg/kg groups, and blank control group. The compounds in each group were configured with saline (0.9% NaCl) and administered at a frequency of 1 time/day for a 24-week dosing cycle.
Indicator test: The body weight and food intake of ApoE^−/− mice were closely monitored during the administration period. After 24 weeks of compound administration in each group, the aortic vessels of mice were stripped and Sudan IV staining of aortic plaques was performed, and the plaque area was counted with Image-Pro Plus software.

crab-eating monkeys = assay: High-fat, high-sugar, high-cholesterol diet-induced NASH in crab-eating monkeys; assay type: in vivo, crab-eating monkey; conditions: 20 mg/kg, 1 time/day, 14 weeks, liver puncture
Experimental: Dosing regimen: 18 non-alcoholic steatohepatitis-eating crab monkeys, males, were divided into 2 groups (n=8-10), one group was set up as a model control group, and one group was set up as a drug administration group. The drug (20 mg/kg) was administered at a frequency of 1 time/day for 14 weeks while feeding a high-fat, high-sugar, high-cholesterol diet for 14 weeks.
Indicator tests: The body weights and food intake of the crab-eating monkeys were closely monitored during the administration period. After 14 weeks of compound administration, liver puncture was performed for pathologic analysis of NASH indicators.

## CC(C)(CCCC/C=C/CCCCCC(C)(C)C(=O)O)C(=O)O [Compound A3]
[1]
  IC50: 85.4 ± 9.8 µM
ApoE−/− mice; 15, 30 and 60 mg/kg groups, 1 time/day, 24 weeks, vs control group
  area of aortic plaque: significantly reduced
ApoE−/− mice; statement on previous studies
  improving atherosclerosis compared with ETC-1002: significantly better than ETC-1002
crab-eating monkeys
  accumulation of hepatic lipids: significantly reduce
  activity score of non-alcoholic steatohepatopathy (NAS): significantly reduced
  occurrence of fibrosis: significantly reduce
  occurrence of inflammation: significantly reduce
